Reference: patent publication US8242087B2, “Phosphate modified nucleosides useful as substrates for polymerases and as antiviral agents” (priority 2007, dated 2012)

What was measured:
[1] = molecular target: T1, Therminator DNA polymerase (Thermococcus sp., UniProt Q56366, A485L/D141A/E143A); assay: Single nucleotide incorporation by Therminator DNA polymerase; format: biochemical, (9° N-7) Thermococcus sp.; settings: single nucleotide incorporation, P1/T1
T1 construct: purchased Westburg (NEB)
T1 sequence (Q56366 whole entry D141A/E143A/A485L): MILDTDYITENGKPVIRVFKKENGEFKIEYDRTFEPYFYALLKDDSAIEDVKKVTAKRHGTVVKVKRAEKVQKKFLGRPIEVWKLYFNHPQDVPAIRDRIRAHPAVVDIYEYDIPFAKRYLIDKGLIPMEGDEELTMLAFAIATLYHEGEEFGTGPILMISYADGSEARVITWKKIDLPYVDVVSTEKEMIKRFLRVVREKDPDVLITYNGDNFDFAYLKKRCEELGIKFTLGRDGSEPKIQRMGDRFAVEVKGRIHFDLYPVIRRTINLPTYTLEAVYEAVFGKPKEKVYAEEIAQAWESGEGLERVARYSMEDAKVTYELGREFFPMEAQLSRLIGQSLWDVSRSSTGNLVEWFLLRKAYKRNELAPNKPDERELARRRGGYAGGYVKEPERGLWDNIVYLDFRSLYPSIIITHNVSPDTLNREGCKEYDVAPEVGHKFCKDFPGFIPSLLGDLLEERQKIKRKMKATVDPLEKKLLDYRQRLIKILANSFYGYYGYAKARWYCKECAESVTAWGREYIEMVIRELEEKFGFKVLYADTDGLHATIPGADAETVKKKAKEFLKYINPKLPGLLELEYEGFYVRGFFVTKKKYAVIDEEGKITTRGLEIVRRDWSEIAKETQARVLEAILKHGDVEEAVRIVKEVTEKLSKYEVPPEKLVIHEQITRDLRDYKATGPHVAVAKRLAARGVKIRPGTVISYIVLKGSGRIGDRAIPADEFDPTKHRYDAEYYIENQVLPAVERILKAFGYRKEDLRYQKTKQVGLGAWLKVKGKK
Method: In the case of Therminator DNA polymerase, the enzyme was obtained from Westburg (NEB) (2 U/μL) and the reactions were carried out in a 10× Thermopol reaction buffer containing 20 mM TRIS.HCl, 10 mM KCl, 2 mM MgSO4, 0.1% Triton X-100, pH 8.8. The final concentration of the Therminator DNA pol in the reaction mixture was 8.33×10^−4 U/μL. The polymerase reaction involving Therminator DNA polymerase or any other thermostable polymerase (Vent (exo^−), Taq DNA polymerase) was carried out in a similar way as the HIV RT reaction with some modifications. The dNTP solutions and the primer/template/DNA polymerase mixture solutions were topped with mineral oil (30-60 μL) and pre-incubated at 70° C. for 2 minutes. The polymerase reactions were performed at 70° C. as well.

[2] = molecular target: T2, HIV RT (Human immunodeficiency virus type 1 group M subtype B, UniProt P03366); assay: Primer extension by HIV RT (P1/T3, P1/T5); format: biochemical, HIV-1; settings: one hour, 500 μM
T2 construct: HIV RT polymerase was purchased from GE Healthcare; purchased GE Healthcare (Amersham Bioscience)
Method: (§1) A typical single nucleotide incorporation and primer extension assays using HIV RT polymerase was carried out similar to one described in the literature. HIV RT polymerase was purchased from GE Healthcare and was supplied as either 12 or 30 U/μL stock solution. The final concentration of HIV RT in a reaction mixture was 0.03-0.003 U/μL. A primer/template duplex mixture was prepared by combining appropriate amounts of a 5′-^33P-labeled primer (P1) and a template in 1:2 molar ratio to provide a 4× solution with 0.5 μM primer concentration. The polymerase reactions were carried out in a 5×RT buffer containing 250 mM TRIS.HCL, 250 mM KCl, 50 mM MgCl2, 2.5 mM spermidine, 50 mM DTT, pH 8.3. For the single nucleotide incorporation assay, a P1/T1 primer-template pair was used whereas the primer extension study was performed with P1/T3 and P1/T5 primer-template pairs.
Primer extension study with HIV RT and Therminator DNA polymerase was performed in a fashion similar to the single nucleotide incorporation experiments. Two sets of primer/template complexes were used: P1/T3 and P1/T5.

[3] = molecular target: T3, HIV reverse transcriptase (HIV RT) (Human immunodeficiency virus type 1 group M subtype B, UniProt P03366); assay: Single nucleotide incorporation by HIV RT, gel-based, P1/T1 (Examples 2-3); format: biochemical, HIV-1; settings: same conditions (500 μM, 60 min)
T3 construct: HIV RT polymerase was purchased from GE Healthcare; purchased GE Healthcare (Amersham Bioscience)
Method: as §1
Briefly, a mixture containing 5 μL of the 4× primer/DNA duplex solution and 5 μL of 4× polymerase solution was pre-incubated at 37° C. for 2 minutes to ensure formation a DNA polymerase/DNA duplex complex. Simultaneously, 2× solutions of dNTP to provide final concentrations of 100 μM, 200 μM, 500 μM and 1 mM were also pre-incubated at 37° C. for 2 minutes as well. The polymerase reaction in a total volume of 20 μL was initiated by addition of 10 μL of the 2× dNTP solution to the DNA polymerase/DNA duplex mixture. The reactions were run at 37° C. and aliquots (2.5 μL) were removed at specified time points and mixed with 10 μL of a quenching buffer containing 80% formamide, 2 mM EDTA, 1×TBE. Quenched reactions were analyzed by loading 2 μL of a reaction sample onto a 20% denaturing polyacrylamide:gel (19:1 acrylamide:bisacrylamide, 7M urea, 0.4 mm×30 cm×40 cm) made in 1×TBE buffer (90 mM Tris-borate, 2 mM EDTA, pH 8.3). The gel was pre-equilibrated for 2 hours before loading and the reactions were run along with a tracking dye marker containing bromophenol blue (BB) and xylene cyanol (XC) until the BB dye had run ⅔ of the total gel length. For visualization, gels were scanned using a Cyclone Phosphoroimager.

[4] = molecular target: T4, HIV-1 Reverse Transcriptase (Human immunodeficiency virus type 1 group M subtype B, UniProt P03366); assay: Single incorporation into P1T1 by HIV-1 Reverse Transcriptase (Examples 6, 7, 9); format: biochemical; settings: for conversion to an n+1 strand: 2 hours, 1 mM concentration
T4 construct: performed with the enzyme HIV-1 RT (Ambion, 10 U/μL stock solution); purchased Ambion
Method: HIV-1 Reverse Transcriptase serves, in the HIV-1 viral replication process, as a catalyst and uses deoxynucleotides as substrates. This polymerase is error-prone and thus has a high mutation rate. Here, we evaluated the capacity to incorporate a deoxyadenosine nucleoside into the primer-template complex P1T1 using HIV-1 RT, and some of the above described illustrative compounds of the invention, carrying different leaving groups, as substrates. The initial screening was carried out using a template with an overhang of one thymidine nucleotide followed by three non-pyrimidine bases (Table 1). Incorporation efficiency was analysed by the polyacrylamide gel-based single nucleotide incorporation assay.
End-labeled primer was annealed to its template by combining primer and template in a molar ratio of 1:2 and heating the mixture to 70° C. for 10 minutes followed by slow cooling to room temperature over a period of 1.5 hour. For the incorporation of 1, 2, 3, 4, 5 and 6, a series of 20 μL-batch reactions was performed with the enzyme HIV-1 RT (Ambion, 10 U/μL stock solution, specific activity 8.095 U/mg, concentration 1.2 mg/mL). The final mixture contained 125 nM primer template complex, RT buffer (250 mM Tris.HCl, 250 mM KCl, 50 mM MgCl2, 2.5 mM spermidine, 50 mM dithiothreitol (DTT); pH 8.3), 0.025 U/μL HIV-1 RT, and different concentrations of phosphoramidate or phosphodiester building blocks (1 mM, 500 μM, 200 μM and 100 μM respectively). In the case of the aromatic phosphate-modified nucleosides 23 and 24, the range of concentrations was limited to 1 mM. In the control reaction with the natural nucleotide, a 10 μM dATP concentration was used. The mixture was incubated at 37° C. and 2.5 μL aliquots were quenched after 5, 10, 20, 30, 60 and 120 minutes.

Nc1ncnc2c1ncn2[C@H]1C[C@H](O)[C@@H](COP(=O)(O)NCC2CO2)O1 (stereo partly drawn) [Compound 3, 2′-deoxy-adenosine-5′-glycidyl-phosphoramidate]
incorporation as Therminator DNA polymerase substrate [1]: act effectively as alternative substrates
primer strand extension efficiency [2]: low efficiency
incorporation, fold less efficient than Asp-dAMP [3]: 6.5 fold

Nc1ncnc2c1ncn2[C@H]1C[C@H](O)[C@@H](COP(=O)(O)Oc2ccc(C(=O)O)c(C(=O)O)c2)O1 [Compound 24, 2′-deoxyadenosine-5′-(4-hydroxy-phthalic acid) phosphodiester]
conversion to an n+1 strand [4]: 13%

Nc1ncnc2c1ncn2[C@H]1C[C@H](O)[C@@H](COP(=O)(O)OCC(=O)O)O1 [GA-dAMP, 2′-deoxyadenosine-5′-(glycolic acid) phosphodiester]
n+1 formation ([4]; 500 μM): up to 68%

Nc1ncnc2c1ncn2[C@H]1C[C@H](O)[C@@H](COP(=O)(O)Oc2cc(C(=O)O)cc(C(=O)O)c2)O1 [Compound 22, 2′-deoxyadenosine-5′-(5-hydroxy-isophthalic acid) phosphodiester]
conversion to an n+1 strand [4]: 90-92%
